In US20040265350A1, “Use of a porous carrier” (priority 2000, published 2004):
“Also recorded” adds a separate entry of the source. Values belong to the compound of their own block, whether it stands above or below them.

Legend:
[1] = Leaching of cis-platin from HA block into distilled water, absorbance at 206 nm; assay type: physicochemical
Procedure: No yellow colour was observed within the block.
Leaching experiments were carried out in distilled water (35 cm^3) with stirring, in the absence of light and closed to prevent evaporation. Absorbance was recorded at λ 206 nm at appropriate intervals and all caclulations required the extinction coefficient 3057 mol^−1 dm^3 cm^−1. [formula]

[2] = system: human osteoblast like cells(HOB); assay: MTT assay of cell proliferation, HOB cells; assay type: cell-based
Excerpt: (§1) Two osteosarcoma cell lines and primary human osteoblasts were used in the cell culture studies of the effect of increased MTX concentration and duration time. The MG63 cells were obtained from a […] (ATCC-CRL-1427). The human osteosarcoma like cells(HOS) cells were obtained from a […] (ATCC-CRL-1543). The human osteoblast like cells(HOB) were isolated from patients undergoing total knee replacement. The cell lines were each cultured in complete Dulbecco's Modified Eagle's Medium (DMEM) (Gibco, UK) supplemented with 10% foetal calf serum (FCS) (Gibco, UK), non essential amino acids (1%), ascorbic acid (150˜g/ml), L glutamine (0.02M), HEPES (0.01M), penicillin (100 units/ml) and streptomycin (100˜g/ml), at 37° C. and 5% CO2 in a 99% humidified sterile atmosphere. The medium was changed at least twice a week to prevent nutrient depletion-and waste product accumulation.
(§2) Once the cells had become confluent, they were removed by emptying the medium, washing with 10 ml PBS and adding 5 ml of 0.25% Trypsin and incubating at 37° C. […] Next the cells were counted under a light microscope and concentrations of 13.2×10^4 cells/ml made up. […]
(§3) The effects of MTX on the proliferation of ostersarcoma cells was measured by MTT assay. […] The absorbance of each well was then read by a Dynatech microplate reader (BioRad Model 3550) at a wavelength of 595 nm and 5 sec mixing time. […]

[3] = system: human osteosarcoma like cells(HOS); assay: MTT assay of cell proliferation, HOS cells; assay type: cell-based
Excerpt: as §1, §2, §3

[4] = Leaching of MTX from HA discs with or without PLG; assay type: physicochemical
Procedure: Initially the release of MTX from HA using the polymer PLG (75:25) was performed to establish whether this polymer {which is expected to degrade at a slower rate than PLG (50:50)} induced a slowed rate of release of MTX. HA discs from the second batch were used for the experiment and approximately the same quantities of MTX, PLG and acetonitrile were used. The experiment was labelled as follows; IA and IB were loaded by centrifugation and IB contains polymer, IC and ID were loaded by the vacuum technique and ID contains polymer. The following results-were obtained [formula]

[5] = system: osteosarcoma cells; settings: 5 mM MTX; cited from earlier work
[6] = system: osteoblast cells; settings: 5 mM MTX; cited from earlier work
[7] = system: MG63 cells; assay: MTT assay of cell proliferation, MG63 cells; assay type: cell-based, human
Excerpt: as §1, §2, §3

[8] = Solubility seen while preparing loading solutions; assay type: physicochemical
Excerpt: After drying the block in an oven overnight the vacuum method was again used to inject a solution of PLG (85:15) (0.105 g) in acetonitrile (50 cm^3). Again the block was oven dried overnight.

[9] = Leaching of [Fe(phen)3][ClO4]2 from HA blocks into distilled water, UV-Vis at 512 nm; assay type: physicochemical
Excerpt: Leaching with stirring of solutions to avoid inaccuracies due to concentration gradients. (According to present arrangements however some anomalies may result from occasional jarring of the block by the magnetic follower).
Half of the block prepared in method 3 was immersed in distilled water (30 cm3) and the absorbance recorded by UV-Vis spectrometry at wavelength 512 nm. An extinction coefficient of 10,620 mol^−1 dm^3 cm^−1 was used in all calculations.
Vacuum method 3 was used for loading the compounds onto HA, again blocks of porosity 83.35% (0006) were used with approximate dimensions, 20×20×15mm, weight 3.6-3.8 g. […] […] Again the blocks were dried in the oven. (In order to fully dissolve the polymer in acetronitrile stirring for up to 1 hour is required before loading).
All leaching experiments were undertaken using the cut halves of the loaded blocks with distilled water (30 cm3) and constant stirring. […] This buoyancy is likely to be due to the polymer blocking pores in the HA trapping air inside the block. […] Again absorbance at λ 512 nm was recorded at appropriate intervals. [formula]

[10] = Leaching of Prednisolone from HA discs with or without PLG; assay type: physicochemical; settings: presence of PLG (50:50)
Procedure: Serial dilution experiments were performed to obtain the following calibration chart and equation for Prednisolone. [formula]
Four HA discs from the second batch were used for these experiments. Approximately […] of Prednisolone was used in each of the acetonitrile solutions. The experiments were labelled 1AA, 1BB, 1CC and 1DD. 1M and 1BB were loaded by centrifugation and 1BB contained 0.1 g of PLG (50:50). 1CC and 1DD were loaded using the vacuum technique and 1DD contained 0.1 g of PLG (50:50). The standard leaching experiments were carried out and the results presented below. [formula]

[11] = 1 day exposure, MTX 0.1 to 1000 μg/ml
[12] = 3 day exposure, same concentrations
[13] = block loaded with complex and PLG (50:50)

Compound: N.N.[Cl][Pt][Cl] [cis-platin]
time after which almost the entire drug / the majority is released from HA ([1]; no polymer, distilled water, stirring, dark): 45 min
effect of PLG on release of cis-platin from HA ([1]; presence of PLG (50:50)): slowed

Compound: Iron(II) Tris Phenanthrolin Perchlorate [[Fe(phen)3][ClO4]2]
time after which almost all complex is released from the block ([9]; block loaded by vacuum method 3 from methanol, no polymer, distilled water, stirring): 170 min
effect of PLG impregnation on release of complex [9, 13]: dramatically slows the release
time at which continuing release of complex is still observed [9, 13]: > 5 days
effect of PLG impregnation on release of complex ([9]; block loaded with complex and PLG (50:50), listed as Iron Tris Phen): significantly slows the release
time after which approximately all / the majority of complex is released ([9]; control block loaded from acetonitrile, no PLG): 300 min
further quantity released after solution replaced with distilled water ([9]; method 3 block, replaced after 330 minutes, read after a further 20 hours): 0.14 mg
release profile of complex from the block ([9]; no polymer): two phases; also recorded: initial burst

The next lines start with results.

effect of PLG (50:50) on release of MTX from HA ([4]; presence of PLG (50:50), weighted discs): slower release rate
effect of PLG (75:25) on release of MTX from HA ([4]; presence of PLG (75:25)): does slow the release
Compound: CN(Cc1cnc2nc(N)nc(N)c2n1)c1ccc(C(=O)N[C@@H](CCC(=O)O)C(=O)O)cc1 [MTX, Methotrexate]
cell proliferation (MTT) [2, 11]: decrease in proliferation as MTX concentration rose
cell proliferation (MTT) [2, 12]: reduced level of cell proliferation compared with the 1 day exposure samples; also recorded: affected to a similar degree to the HOS cells
cell proliferation (MTT) [3, 11]: only a small decrease in proliferation
cell proliferation (MTT) [3, 12]: reduced level of cell proliferation compared with the 1 day exposure samples
decrease in proliferation of osteosarcoma cells [5]: 90%
decrease in proliferation of osteoblast cells [6]: 30%
cell proliferation (MTT) ([7]; MG63, 1 day exposure, MTX 0.1 to 1000 μg/ml): decrease in proliferation as MTX concentration rose
cell proliferation (MTT) ([7]; MG63, 3 day exposure, rising MTX concentration): erratic behaviour; also recorded: affected only slightly

solubility in methanol [8]: not soluble
solubility in water [8]: not soluble
Compound: Poly(DL-Lactide-co-Glycolide) [PLG]

effect of polymer on release of Prednisolone from HA [10]: slowed
solubility in acetonitrile ([8]; acetonitrile): dissolves
Compound: C[C@]12C=CC(=O)C=C1CC[C@@H]1[C@@H]2[C@@H](O)C[C@@]2(C)[C@H]1CC[C@]2(O)C(=O)CO [Prednisolone]
